The values that follow come from patent US9128046B2, “Slide holder assembly for comet assay” (Cellomics, Inc., priority 2011, dated 2015).

For data set [1], the system named is CHO-K1 cells. The data set can be described thus: comet assay on CHO-K1 cells in slide holder assembly. Format: cell-based. Particulars: CHO-K1 cells treated with 100 μM for one hour; imaged with ToxInsight IVT platform. The procedure:
Exemplary comet assays were performed using the above devices and methods. For example, in one comet assay, comets were successfully generated and analyzed using CHO-K1 cells on a 96-well glass slide. To ensure that comets would be produced, half of the CHO-K1 cells were treated with 100 μM 9-aminoacridine for one hour. A 96-well glass slide was secured within a slide holder assembly and half of the slide was layered with the treated CHO-K1 cells while the other half was layered with untreated CHO-K1 cells. The cells were allowed to soak in a lysis solution and then an electrophoresis buffer while in the slide holder assembly. The cells were then electrophoresed while in the slide holder assembly and then imaged using the ToxInsight IVT platform.
In FIG. 11, the untreated CHO-K1 cells 342 are shown in columns 1-6 (i.e., the left half of the image) and the treated CHO-K1 cells 344 are shown in columns 7-12 (i.e., on the right half). […] In the sample comet assay, the ToxInsight® IVT Platform was used as the cell imaging system to scan 25 fields/well. Using the Comet.V4 BioApplication software developed by Cellomics Inc., 14,075 comets were automatically selected by the cell imaging system within a time period of 20 minutes, 29 seconds. […] This translates to over one million comets that could be analyzed per 24-hour day.

For data set [2], the system named is CHO-K1 cells. Kind of data set: comet assay of DNA repair over varied durations of time. The note with it: treated CHO-K1 cells layered onto wells for varied durations of time; FIG. 12. The format is cell-based. The method, then: In another sample comet assay, CHO-K1 cells were treated with 9-aminoacridine and the treated cells were layered onto select wells on the glass slide for varied durations of time. The cells were allowed to soak in a lysis solution and then an electrophoresis buffer while in the slide holder assembly. The cells were then electrophoresed while in the slide holder assembly and then imaged using the ToxInsight IVT Platform.

For the compound `Nc1c2ccccc2nc2ccccc12` [9-aminoacridine], the “comet formation (DNA damage)” value with CHO-K1 cells [1] is “comets were formed and imaged on the treated cells”. Further, in the data set on CHO-K1 cells [2], the “DNA repair quantified in comets” value is listed as “time-dependent response of DNA repair”.
